Measurements published in US20200138764A1, “METHODS AND DEVICES FOR ACTIVATING ADIPOSE TISSUE” (The Procter & Gamble Company, priority 2018, published 2020).
Values belong to the compound of their own block, whether it stands above or below them.

What was measured:
[1] = system: Human subcutaneous pre-adipocytes; assay: Lipogenesis Assay (AdipoRed staining); assay type: cell-based; settings: AdipoRed fluorescence, NI = no inhibition at concentration less than/equal to 1 mM
Protocol: Lipogenesis is the process by which acetyl-CoA is converted to fatty acid. Through lipogenesis and subsequent triglyceride synthesis, energy can be stored in the form of adipose tissue (i.e. fats). To determine what effect, if any, activating compounds (shown in TABLE 1) had on lipogenesis, the protocol listed below was used.
To determine whether the activating compounds (shown in TABLE 1) impacted the formation of white adipocytes from pre-adipocytes, a lipogenesis assay was performed. The cells utilized in the protocol were cryo-preserved Human subcutaneous pre-adipocytes superlot (Zen-Bio, Inc., Research Triangle Park, N.C., Cat # SP-F-SL). The growth media used was PM-1 (Zen-Bio, Inc., Research Triangle Park, N.C., cat # PM-1) plus 5 ng/mL Epidermal Growth Factor (EGF). The PM-1+5 ng/mL EGF was prepared by adding 12.5 uL of 200 ug/mL EGF stock to 500 mL PM-1. The differentiation media used was DM-2 (Zen-Bio, Inc., Research Triangle Park, N.C., cat # DM-2). The adipocyte maintenance media used was AM-1 (Zen-Bio, Inc., Research Triangle Park, N.C., cat # AM-1).
First, the human subcutaneous pre-adipocyte cells were thawed in a 37° C. water bath. Next, the thawed pre-adipocyte cells were added to 9 mL of growth medium (PM-1) at 20° C. in a 15 mL polypropylene tube (Bioexpress, Corning, Corning, N.Y.). The tube was centrifuged at 280×g (˜1100 rpm) at 20° C. for 5 min. After 5 min, the supernatant was removed and the accumulated solids were re-suspended in 2 mL of PM-1 using trituration. The suspension of cells was counted under 100× magnification using a Cyto C-Chip hemacytometer (Incyto, Seoul, South Korea, cat # DHC-N01-5). In order to proceed, 15-50 cells per 1×1 mm square in hemacytometer was needed. If, the number of cells per square was not met, 6.7×10^5 (670,000) cells per T75 flask (Bioexpress, Corning, Corning, N.Y.) were added to each square and the suspension was diluted to 20 mL with PM-1. Every other day, new media was added to replace media removed due to metabolism by the cells. The cells were re-counted as described previously. Cells were grown to 80-90% confluence, which took approximately 4-5 days. 80-90% confluence is determined by visual inspection of the area of the flask occupied by the cells. When 80-90% of the flask area has been occupied, cells are at 80-90% confluence. Cell colonies were then split 1:6 by harvesting from a single flask and equally dividing the harvested cells into six flasks. Colonies were not allowed to exceed 3 passages and were not grown to complete confluence. The pre-adipocytes were grown until they contact with other cells in the flask to aid differentiation into white or brown adipocytes.
After the pre-adipocytes were sufficiently grown to 90% confluence, the cells were ready for differentiation and treatment with an activating compound. Cells were washed with 3 mL of PBS and detached using 3 mL of Trypsin EDTA. The cells were incubated at 37° C. for 5 minutes. Next, the cells were centrifuged at 280×g at 20° C. for 5 minutes. The supernatant was discarded and the resulting pellet was re-suspended in 10 mL of PM-1 using trituration. Cells were counted at 100× magnification and the cells were diluted to 86,667 cells/mL (˜13,000 cells/150 μL) by adding the necessary amount of PM-1 to achieve the desired concentration. Upon addition of PM-1, samples were swirled by hand to evenly disperse the cells prior to plating.
Once confluence is reached, 150 μL of differentiation media (DM-2) was added (DAY 0). Samples were incubated at 37° C. for 6 days. On DAY 6, 90 μL of media was removed from each sample via aspiration, without touching the bottom of the well. Next, 140 μL of adipocyte maintenance medium (AM-1) was added. The AM-1 ran down the side of well. On DAY 6, activating compounds were added (2 μL of 10 mM activating compound) to give a final concentration of 100 μM of activating compounds. […]

human TRPM8 = assay: TRPM8 Protocol-FLIPR Assay (intracellular Ca2+); assay type: cell-based; settings: HEK-293 cells stably transfected with human TRPM8, Fluo-4 AM, relative to benchmark agonist WS-5
Protocol: To determine whether TRPM8 is activated, the intracellular calcium ion (Ca^2+) level was measured from transfected cells with the TRPM8 receptor sequence (SEQ ID NO: 1). HEK-293 (human embryonic kidney) cells stably transfected with human TRPM8 were grown in 15 mL growth medium (high glucose DMEM (Dulbecco's Modification of Eagle's Medium) supplemented with 10% FBS (fetal bovine serum), 100 μg/mL penicillin/streptomycin, 5 μg/mL blasticindin, and 100 μg/mL zeocin) in a 75 cm^2 flask for 3 days at 37° C. in a mammalian cell culture incubator (Forma Scientific Model 3110, Marietta, Ohio) set at 5% CO2. Cells were detached with addition of 2 mL of trypsin-EDTA buffer (GIBCO® 25200, Invitrogen, Grand Island, N.Y.) for about 2-3 min. Trypsin was inactivated by addition of 8 mL growth medium. Cells were transferred to a 50 mL tube and centrifuged at 850 rpm for 3 minutes to remove medium. After centrifugation, a pellet of cells was formed in the bottom of the tube separating them from the supernatant solution. The supernatant was discarded and the cell pellet was suspended in 1 mL of fresh growth medium to which 5 μL (12.5 μg) of Fluo-4 AM (Molecular Probes, Inc., Eugene, Oreg.) calcium indicator was added and incubated for 30 min with gentle shaking. Fluo-4 AM is a fluorescent dye used for quantifying cellular Ca^2+ concentrations in the 100 nM to 1 μM range. At the end of 30 minutes, 45 mL of assay buffer (1×HBSS (Hank's Balanced Salt Solution), 20 mM HEPES (4-(2-Hydroxyethyl)-1-piperazineethanesulfonic acid)) was added to wash cells and the resulting mixture was then centrifuged at 850 rpm for 3 minutes at 20° C. to remove excess buffer and Fluo-4 AM calcium indicator.
The pelleted cells were re-suspended in 10 mL assay buffer and 90 μL aliquots (˜50,000 cells) per well delivered to a 96-well assay plate containing 10 μL of test compounds (1 mM in assay buffer, final concentration 100 μM) or buffer control and incubated at room temperature for 30 minutes. After 30 minutes, a plate (Falcon 353219, Corning Corning N.Y.) was placed into a fluorometric imaging plate reader (FLIPR384 from Molecular Devices, Sunnyvale, Calif.) and basal fluorescence recorded (excitation wave length 488 nm and emission wave length 510 nm). Then 20 μL of 100 mM of TRPM8 agonist WS5 coolant in the assay buffer was added and fluorescence recorded. For determining the direct effect of test compounds on TRPM8, fluorescence was measured immediately after addition of each compound (TABLE 1). Additional discussion of the FLIPR method can be found in Smart et al., Characterization using FLIPR of human vanilloid VR1 receptor pharmacology, European Journal of Pharmacology 417, 51-58 (2001) and Liu et al., Development and validation of a platelet calcium flux assay using a fluorescent imaging plate reader, Analytical Biochemistry 357, 216-224 (2006).
The magnitude of the fluorescence of the active-treated cells was compared to the magnitude of the fluorescence from a benchmark agonist (WS-5), as described above. The percentage of fluorescence as a function of active dose was plotted and a sigmoidal curve was generated. Curve fitting from this dose-response curve yielded the value for TRPM8 IC50 in nM.
TRPM8 activation was determined by measuring intracellular calcium ion (Ca^2+) level from transfected cells with the TRPM8 receptor gene, as described in EXAMPLE 1, the results of which are shown in TABLE 1. IC50 values are provided in column 3 of TABLE 1, which measured the concentration of activating compound needed to reduce intracellular [Ca^2+] by 50%. […]

adipocytes = assay: Real Time PCR analysis of adipocytes, in vitro; assay type: cell-based, human
Protocol: For Real Time PCR analysis of adipocytes, cells from cultures grown in 24 well plates were collected. RNA was isolated using RNeasy Kit (Cat 74104, Qiagen, Germantown, Md.) using manufacturer's protocol. RNA was quantitated using the Nanodrop 1000 (Thermofisher, Waltham, Mass.). cDNA formation was carried out using PowerUp SYBR™ Green Master Mix and real time PCR carried out on QuantStudio 6 machine (ThermoFisher, Waltham, Mass.) per manufacturer protocol. ΔΔCT analysis was done using the Expression Suite software (ThermoFisher) purchased with the instrument.
TABLE 2 used Real Time PCR to determine which proteins were expressed in adipocytes upon treatment with activating compounds. […] Real Time PCR values were relative to a control sample that was not treated with any activating compounds. […] In WS-5 and Menthol, no Real Time PCR value was over 2.0, which indicated only slight changes in mRNA expression.

[2] = Real Time PCR, relative to untreated control = 1

IC50 ([1]; Homo sapiens): 800 µM
SMILES: CC(C)[C@@H]1CC[C@@H](C)C[C@H]1C(=O)NCC(NC(=O)[C@@H](C)N)c1ccccc1 (stereo partly drawn) [Comparative Example 1]

IC50 (human TRPM8): 10 to 12 nM | IC50 [1]: 900 µM | IC50 ([1]; Homo sapiens): 800 µM
SMILES: CC(C)[C@@H]1CC[C@@H](C)C[C@H]1C(=O)NCC(NC(=O)[C@H](C)N)c1ccccc1 (stereo partly drawn) [Comparative Example 2]

IC50 ([1]; Homo sapiens): 800 µM
SMILES: CC(C)[C@@H]1CC[C@@H](C)C[C@H]1C(=O)NC[C@@H](NC(=O)[C@@H](C)N)c1ccccc1 [Formula IV]
Relative Expression of mRNA in Adipocytes: 18S (adipocytes; [2]): 0.95 | Relative Expression of mRNA in Adipocytes: ACADM (adipocytes; [2]): 1.4 | Relative Expression of mRNA in Adipocytes: CPT1A (adipocytes; [2]): 1.7 | Relative Expression of mRNA in Adipocytes: FASN (adipocytes; [2]): 1.35 | Relative Expression of mRNA in Adipocytes: GAPDH (adipocytes; [2]): 1 | Relative Expression of mRNA in Adipocytes: PPARGC1A (adipocytes; [2]): 1.1 | Relative Expression of mRNA in Adipocytes: PRDM16 (adipocytes; [2]): 0.7 | Relative Expression of mRNA in Adipocytes: UCP-1 (adipocytes; [2]): 1.8 | Real Time PCR value (any of the proteins of TABLE 2) (adipocytes; upper bound over all proteins, relative to untreated control): ≤ 2

IC50 (human TRPM8): 8 nM | IC50 ([1]; Homo sapiens): 40 µM
SMILES: CC(C)[C@@H]1CC[C@@H](C)C[C@H]1C(=O)OC[C@@H](NC(=O)[C@@H](C)N)c1ccccc1 [Formula VI]

IC50 (human TRPM8): 340 nM | IC50 ([1]; Homo sapiens): 80 µM
SMILES: CC(C)[C@@H]1CC[C@@H](C)C[C@H]1C(=O)OC[C@@H](NC(=O)[C@H](C)N)c1ccccc1 [Formula V]
